# Measured values as given in paper PMC7960611, “A phase 1 study of crenigacestat (LY3039478), the Notch inhibitor, in Japanese patients with advanced solid tumors” (Investigational New Drugs, 2020).
# Values joined by “and” are separate entries in the source; they are usually repeats but may differ in a detail not shown here. Equal entries are not always repeated. “Also recorded” adds a separate entry of the source. Where two headings read alike, the source gives them in different places.
# How the values were obtained:
# [1] = test system: advanced solid tumors in Japanese patients; assay: Efficacy assessment: tumor response (RECIST v1.1); type: in vivo, human
# Protocol: Tumor response, including overall response rate, was measured using RECIST v1.1 [12] or the Response Assessment in Neuro-Oncology criteria for glioblastoma. Patient’s full extent of disease was also assessed via evaluation of performance status (ECOG). Where applicable, tumor measurements were performed by positron emission tomography response criteria of the European Organization for Research and Treatment of Cancer, as well as evaluation of tumor markers. To confirm objective responses, all lesions were radiologically assessed and the same radiologic method used at baseline and for the initial response determination was repeated at least 4 weeks following the initial observation of an objective response.
# [2] = test system: non-Japanese patients with advanced or metastatic cancers; parameters: method as in PMID 30060061; conditions: TIW during a 28-day cycle; cited from earlier work
# [3] = test system: Japanese patients with advanced solid tumors; assay: Safety assessment: adverse events (CTCAE v 4.0), DLT/DLET, phase 1 dose escalation; type: in vivo, human
# Protocol: The study consisted of 2 dose levels of crenigacestat (25 mg and 50 mg), administered orally TIW prior to a meal. A cycle was defined as 28 days. Patients were admitted to the investigational site for 4 weeks through the entire first cycle but were discharged and managed on an outpatient basis on or after day 15 upon investigator discretion. The planned duration of treatment was not fixed. Treatment continued until disease progression, development of unacceptable toxicity, or any other discontinuation criteria were met.
# Data were evaluated on an ongoing basis until the tolerability of crenigacestat for 50 mg was confirmed. Safety data, in particular adverse events (AEs), were the primary criteria for dose escalation. Dose escalation was driven for each treatment combination using the 3 + 3 method. Transition of dose level (from 25 to 50 mg) proceeded if the frequency of dose-limiting toxicity (DLT) observed in cycle 1 was <33% of patients in the first dose level (25 mg). For DLTs, an evaluable patient was defined as a patient who received ≥75% of the planned dose in cycle 1 or a patient who experienced DLT in cycle 1.
# Adverse events were collected throughout the study and coded using Medical Dictionary for Regulatory Activities (MedDRA) terms (Version 22.0). […]
# [4] = Pharmacokinetics: plasma concentrations by LC-MS/MS, noncompartmental analysis; type: in vivo; conditions: human; for AUC(0-inf) / Cmax / AUC(0-t): geometric mean (%CV); for AUC(0-t): read-out: AUC0–48
# Protocol: All patients who received at least 1 dose of the study drug, and had sufficient samples collected, were included in the PK analysis. […] Plasma concentrations of crenigacestat were quantified using a validated liquid chromatography-tandem mass spectrometry (LC-MS/MS) assay. The PK parameters for crenigacestat were calculated by standard noncompartmental methods of analysis. The primary PK parameters for analysis were maximum plasma concentration (Cmax) and area under the plasma concentration-time curve (AUC) from time zero to infinity or over 1 dosing interval at steady state of crenigacestat.
# [5] = po, 25 mg, Day 1 (Dose 1), 25 mg oral TIW
# [6] = po, 25 mg, Day 22 (Dose 10), 25 mg oral TIW
# [7] = po, 50 mg, Day 1 (Dose 1), 50 mg oral TIW
# [8] = po, 50 mg, Day 22 (Dose 10), 50 mg oral TIW
compound,measurement,setting,value
"C[C@H](NC(=O)CCC(F)(F)F)C(=O)N[C@@H]1C(=O)N(CCO)c2ncccc2-c2ccccc21 [Crenigacestat, crenigacestat]",Complete or partial response to the treatment,"[1]; 25 mg and 50 mg oral TIW, all patients",None of the patients had a complete or partial response; also recorded: no partial or complete responses
same,Best overall response: Complete response (CR),[1]; 25 mg oral TIW (n = 4),0 n (%)
same,Best overall response: Partial response (PR),[1]; 25 mg oral TIW (n = 4),0 n (%)
same,Best overall response: Progressive disease,[1]; 25 mg oral TIW (n = 4),4 (100.0) n (%)
same,Disease control rate (CR/PR/SD),[1]; 25 mg oral TIW (n = 4),0 n (%)
same,Best overall response: Complete response (CR),[1]; 50 mg oral TIW (n = 7),0 n (%)
same,Best overall response: Partial response (PR),[1]; 50 mg oral TIW (n = 7),0 n (%)
same,Best overall response: Progressive disease,[1]; 50 mg oral TIW (n = 7),6 (85.7) n (%)
same,Disease control rate (CR/PR/SD),[1]; 50 mg oral TIW (n = 7),1 (14.3) n (%)
same,Duration of stable disease,"[1]; one patient with a desmoid tumor, 50-mg treatment arm",22.5 months and 22.47 months
same,Tumor size shrinkage,"[1]; one patient with a desmoid tumor, 50-mg treatment arm, first 8 cycles",22.4% and 22.37%
same,"Recommended phase 2 dose, monotherapy",[2],50 mg
same,"Serious adverse events (SAEs), discontinuation or death due to an AE","[3]; both treatment arms, on treatment or within 30 days of discontinuation","no patients who reported any serious adverse events (SAEs), discontinued study treatment due to an adverse event (AEs) or SAE, or died due to an AE"
same,Recommended dose in Japanese patients,"[3]; human, in vivo, po, 28 days",50 mg
same,AUC(0-inf),"[4]; Day 1 (Dose 1), 25 mg oral TIW",1480 ng·h/mL
same,AUC(0-inf),"[4]; Day 1 (Dose 1), 50 mg oral TIW",3080 ng·h/mL
same,Tmax,"[4]; oral, postdose, each dose level, read-out: Median time to maximum plasma concentration (tmax)",~2 h
same,half-life,"[4]; po, 25 mg and 50 mg oral TIW, read-out: Mean t1/2 (converted)",~4 h
same,Cmax,[4]; [5],324 ng/mL
same,AUC(0-t),[4]; [5],1480 ng·h/mL
same,Tmax,"[4]; po, 25 mg, Day 1 (Dose 1), 25 mg oral TIW, read-out: tmax, median (range)",1.92 h
same,half-life,"[4]; po, 25 mg, Day 1 (Dose 1), 25 mg oral TIW, read-out: t½, geometric mean (range) (converted)",3.64 h
same,Cmax,[4]; [6],429 ng/mL
same,AUC(0-t),[4]; [6],2070 ng·h/mL
same,Tmax,"[4]; po, 25 mg, Day 22 (Dose 10), 25 mg oral TIW, read-out: tmax, median (range)",1.88 h
same,half-life,"[4]; po, 25 mg, Day 22 (Dose 10), 25 mg oral TIW, read-out: t½, geometric mean (range) (converted)",4.19 h
same,Cmax,[4]; [7],670 ng/mL
same,AUC(0-t),[4]; [7],3080 ng·h/mL
same,Tmax,"[4]; po, 50 mg, Day 1 (Dose 1), 50 mg oral TIW, read-out: tmax, median (range)",1.93 h
same,half-life,"[4]; po, 50 mg, Day 1 (Dose 1), 50 mg oral TIW, read-out: t½, geometric mean (range) (converted)",3.89 h
same,Cmax,[4]; [8],416 ng/mL
same,AUC(0-t),[4]; [8],2090 ng·h/mL
same,Tmax,"[4]; po, 50 mg, Day 22 (Dose 10), 50 mg oral TIW, read-out: tmax, median (range)",1.94 h
same,half-life,"[4]; po, 50 mg, Day 22 (Dose 10), 50 mg oral TIW, read-out: t½, geometric mean (range) (converted)",3.67 h
